Data on 2 molecules can be found in US9938250B2, “Antifibrotic effects of oxetanyl sulfoxides” (University of Pittsburgh—Of the Commonwealth System of …, priority 2015, dated 2018).

The conditions of data set [1]: discussion, comparison of DMSO with MMS-350; cited from earlier work.
The test system of data set [2] is C57BL/6J mice. Put plainly: Bleomycin-induced pulmonary fibrosis in mice. The format is in vivo. The procedure: Pulmonary fibrosis was induced in male 6- to 8-week-old C57BL/6J mice by intratracheal administration of 1 mg/kg of Bleomycin (Enzo) in a total volume of 50 uL. Mice were orally administered either 200 uL of PBS or MMS-350 (2%) on a daily basis and lungs were harvested after 5 and 14 days. Right lungs were fixed in 10% neutralized formalin and paraffin embedded. Left lungs were frozen for hydroxyproline assay and total RNA extraction.
Six-micrometer sections of paraffin-embedded mouse lung tissues were stained with H&E and images were taken on an Olympus Provis III microscope (Olympus America Inc.) with identical settings.
Hydroxyproline assay. The hydroxyproline content of mouse lung tissues obtained on day 14 was measured as described (41) and adjusted by lung weight.
Frozen mouse lung tissues obtained on day 5 were placed in 1.5 mL of RNase free Red Bead Lysis Kit tubes (Next Advance) containing 500 uL of TRIzol® Reagent (Life Technologies) and homogenized using BBX24 Bullet Blender® (Next Advance). Total RNA was extracted and purified with RNeasy Mini Kit (Qiagen). Reverse transcription was performed with SuperScript II (Invitrogen) followed by quantitative polymerase chain reaction (PCR) amplification with the TaqMan method (ABI Prism 7300; Applied Biosystems). Premixed PCR primers and TaqMan probes for mouse collagen 1A2 and GAPDH were obtained from Applied Biosystems. Gene expression levels were normalized to GAPDH and compared with the 2^−ΔΔCt method.

Data set [3] relates to experimental mice. The note with it: cited from earlier work.
Data set [4] has as its system primary human fibroblasts. Put plainly: TGFβ-induced fibrotic markers in primary human lung fibroblasts, immunoblotting. In kind it is cell-based. On the procedure: All tissues were obtained under a protocol approved by the Institutional Review Board of the University of Pittsburgh and with written consent. Primary human fibroblasts were cultured from the lung tissues of normal donors and patients undergoing lung transplantation. Fibroblasts were grown in Dulbecco's modified Eagle's medium (DMEM) supplemented with 10% fetal bovine serum (FBS), 100 U/mL penicillin, […] streptomycin and […] amphotericin B, and maintained at 37° C. in 5% CO2 humidified incubator. Three strains of normal primary human fibroblasts were plated on 6-well plates at a seeding density of 2.5×10^5 cells per well. Cells were serum starved for 6-16 h and treated with vehicle, TGFβ (10 ng/mL), MMS-350 (0.5 mg/mL), or TGFβ+MMS-350. Experiments using KRL507-031 were performed similarly. The cell lysates and culture supernatants were harvested 72 h after treatment and analyzed by immunoblotting.
Fibroblasts were rinsed with 1× PBS, scraped into 100 μL of 2×-sodium dodecyl sulfate (SDS) sample buffer, and boiled for 5 min. Equal protein amounts of cell lysates or supernatants were resolved on 10-12% sodium dodecyl sulfate polyacrylamide (SDS-PAGE) gels. Proteins were transferred to 0.2 μm nitrocellulose membranes (Whatman, Germany) and blocked with 5% nonfat dry milk in TBS-Tween 20 for 1 h at room temperature. Membranes were incubated with primary antibodies overnight at 4° C. followed by horseradish peroxidase-conjugated secondary antibodies for 1 h at room temperature. Signals were detected with enhanced chemiluminescence (Perkin Elmer Life Sciences, Inc., Boston, Mass.) and imaged with the FluorChem E digital imaging system from Protein Simple (Santa Clara, Calif.). Results were analyzed using the accompanying software Alphaview.

The nature of data set [5]: Aqueous solubility, statement only. The format is physicochemical.
The subject of data set [6] is endothelial and alveolar type II cells. As to conditions: cells cultured from lung tissues of mice following thoracic irradiation; Kalash et al In vivo 2013; cited from earlier work.
The mark [7] stands for this setting: TGFβ 10 ng/mL + MMS-350 0.5 mg/mL vs TGFβ1 alone, 72 h.

Entries after “also recorded” stand apart in the source; their conditions may differ.

As to `C[S+](C)[O-]` [DMSO, dimethyl sulfoxide, reference compound], the “log P (lipophilicity)” value in data set [1] is listed as -1.4.
`CC1(C[S+]([O-])CC2(C)COC2)COC1` [MMS-350, 3,3′-Sulfinylbis(methylene)bis(3-methyloxetane)]: in data set [2] (MMS-350 (2%) oral daily, day 5), the “Collagen α2I mRNA levels in lung” value was “reduced”. In addition, the “hydroxyproline levels in lung” value in data set [2] (MMS-350 (2%) oral daily, day 14) is on record as “significant reduction”. Besides, the “lung fibrosis, histology (H&E)” value in data set [2] (bleomycin 1 mg/kg intratracheal, MMS-350 (2%) 200 uL oral daily, day 14) is “ameliorated fibrosis histologically”. Further, in data set [2] (bleomycin + MMS-350, bleomycin-treated mice 62.5%), the overall survival was determined as 87.5%. The toxicity result in data set [2] (given orally) is listed as “no toxicity”. Moreover, in data set [2] (vs mice treated with bleomycin alone, data not shown), the weight loss result was “less weight loss”. In addition, in data set [3] (Goff et al 2013), the “mitigation of ionizing irradiation” value is recorded as “mitigator of ionizing irradiation”. Further, in data set [3] (Kalash et al Radiat Res 2013), the radiation-induced pulmonary fibrosis result is reported as “ameliorate radiation-induced pulmonary fibrosis” and the “survival of irradiated mice” value is “increase survival”. For the same molecule, in data set [4] (setting [7]), the CTGF secreted protein result was “significantly decreased”, the “IGFBP3 (BP3) secreted protein” value was “significantly decreased”, the “collagen 1α1 (Col1) protein” value was “significantly decreased” and the “fibronectin (FN) protein” value is given as “significantly decreased”. For the same molecule, the “α-SMA protein (marker of fibroblast activation)” value in data set [4] (setting [7]) is “significantly decreased”. In data set [4] (compound added 30 min to 6 h after TGFβ), the “anti-fibrotic activity on delayed addition” value was “profound anti-fibrotic activity”. Besides, in data set [5], the aqueous solubility entry is given as “exquisite aqueous solubility; also recorded: exceptionally high aqueous solubility”. The pro-fibrotic gene expression entry in data set [6] is given as “reduce pro-fibrotic gene expression”. Further, the “log P (lipophilicity)” value in data set [1] is given as −0.7.
